In series [1] the target is T1, Dipeptidyl peptidase 2 (Homo sapiens, UniProt Q9UHL4).
Series [2] is filed under the species Rattus norvegicus. Kind of series: animal or person. The settings on record: Plasma, po, 6 h, read-out: INH.
For series [3], the species on record is Rattus norvegicus. Put plainly: animal or person. The following applies: Plasma, po, 10 h, read-out: INH.
The species named for series [4] is Rattus norvegicus. Kind of series: animal or person. The following applies: Plasma, 4 h, read-out: INH.
The species named for series [5] is Rattus norvegicus. Put plainly: animal or person. The settings on record: Plasma, 0.5 h, read-out: INH.
In a further series the target is Dipeptidyl peptidase 8 (Homo sapiens, UniProt Q6V1X1).
Dipeptidyl peptidase 8, sequence (Q6V1X1 whole entry): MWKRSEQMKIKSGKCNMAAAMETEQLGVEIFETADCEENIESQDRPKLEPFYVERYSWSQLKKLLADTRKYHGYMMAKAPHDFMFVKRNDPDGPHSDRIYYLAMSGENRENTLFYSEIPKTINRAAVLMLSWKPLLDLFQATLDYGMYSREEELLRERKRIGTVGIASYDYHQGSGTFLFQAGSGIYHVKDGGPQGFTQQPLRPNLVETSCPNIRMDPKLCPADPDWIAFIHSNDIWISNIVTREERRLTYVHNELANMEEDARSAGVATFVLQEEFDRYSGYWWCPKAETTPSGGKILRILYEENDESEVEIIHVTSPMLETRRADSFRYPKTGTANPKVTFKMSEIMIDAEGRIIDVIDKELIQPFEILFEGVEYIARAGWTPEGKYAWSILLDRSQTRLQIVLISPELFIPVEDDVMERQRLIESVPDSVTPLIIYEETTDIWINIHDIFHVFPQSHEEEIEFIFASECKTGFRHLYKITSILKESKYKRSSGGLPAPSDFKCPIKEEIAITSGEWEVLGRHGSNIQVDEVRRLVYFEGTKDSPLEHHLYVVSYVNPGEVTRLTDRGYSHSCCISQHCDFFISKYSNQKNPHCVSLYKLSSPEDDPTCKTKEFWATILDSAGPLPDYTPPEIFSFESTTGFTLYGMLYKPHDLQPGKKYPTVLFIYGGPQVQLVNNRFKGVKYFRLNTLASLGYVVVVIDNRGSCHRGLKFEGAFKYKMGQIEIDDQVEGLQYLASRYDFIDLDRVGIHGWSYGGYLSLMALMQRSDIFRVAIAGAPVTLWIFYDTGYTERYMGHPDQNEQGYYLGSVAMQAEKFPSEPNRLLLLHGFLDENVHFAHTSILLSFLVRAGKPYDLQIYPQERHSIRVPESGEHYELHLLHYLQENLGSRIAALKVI
The target of a further series is Dipeptidyl peptidase 9 (Homo sapiens, UniProt Q86TI2). Kind of series: Inhibition of DPP9.
Dipeptidyl peptidase 9, sequence (Q86TI2 whole entry): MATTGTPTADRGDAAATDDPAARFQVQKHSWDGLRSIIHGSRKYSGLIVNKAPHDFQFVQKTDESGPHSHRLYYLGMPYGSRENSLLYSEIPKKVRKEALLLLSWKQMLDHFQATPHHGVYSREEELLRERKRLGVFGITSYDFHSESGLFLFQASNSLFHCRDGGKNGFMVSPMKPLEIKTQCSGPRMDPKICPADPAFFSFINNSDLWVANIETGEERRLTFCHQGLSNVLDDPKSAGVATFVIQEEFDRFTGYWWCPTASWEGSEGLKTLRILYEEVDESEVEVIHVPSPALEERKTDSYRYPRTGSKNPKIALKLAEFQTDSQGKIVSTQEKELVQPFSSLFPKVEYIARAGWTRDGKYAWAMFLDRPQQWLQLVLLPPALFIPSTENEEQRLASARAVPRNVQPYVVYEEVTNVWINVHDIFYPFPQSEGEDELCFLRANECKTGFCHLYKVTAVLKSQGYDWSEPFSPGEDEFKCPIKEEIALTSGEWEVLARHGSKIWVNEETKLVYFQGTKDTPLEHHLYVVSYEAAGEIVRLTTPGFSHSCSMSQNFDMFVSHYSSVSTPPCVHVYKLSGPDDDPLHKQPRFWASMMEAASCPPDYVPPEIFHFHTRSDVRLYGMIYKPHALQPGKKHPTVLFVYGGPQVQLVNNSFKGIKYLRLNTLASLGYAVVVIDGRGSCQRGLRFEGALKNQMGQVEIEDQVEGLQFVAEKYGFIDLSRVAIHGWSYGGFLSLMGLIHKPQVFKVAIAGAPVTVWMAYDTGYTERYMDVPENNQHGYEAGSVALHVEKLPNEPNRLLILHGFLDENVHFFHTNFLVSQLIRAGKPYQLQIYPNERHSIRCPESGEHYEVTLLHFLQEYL
The species entered for series [6] is Rattus norvegicus. Put plainly: animal or person. The following applies: Plasma, 6 h, read-out: INH.
Series [7] has as its target Dipeptidyl peptidase 4 (Homo sapiens, UniProt P27487).
Series [8] in a line: Cmax in Wistar rat at 1 mg/kg after 10 mins. In kind it is ADME, organism-based. More on the design: dose 1 mg/kg. The settings on record: in vivo.
Series [9] is filed under the species Rattus norvegicus.
Series [10] in a line: Oral bioavailability in cynomolgus monkey. The series is classed as ADME, organism-based, Macaca fascicularis. The following applies: in vivo.
Series [11] in a line: Selectivity for DPP4 over DPP8.
The target of series [12] is T2, Dipeptidyl peptidase 4 (Rattus norvegicus, UniProt P14740).
T2 sequence (P14740 whole entry): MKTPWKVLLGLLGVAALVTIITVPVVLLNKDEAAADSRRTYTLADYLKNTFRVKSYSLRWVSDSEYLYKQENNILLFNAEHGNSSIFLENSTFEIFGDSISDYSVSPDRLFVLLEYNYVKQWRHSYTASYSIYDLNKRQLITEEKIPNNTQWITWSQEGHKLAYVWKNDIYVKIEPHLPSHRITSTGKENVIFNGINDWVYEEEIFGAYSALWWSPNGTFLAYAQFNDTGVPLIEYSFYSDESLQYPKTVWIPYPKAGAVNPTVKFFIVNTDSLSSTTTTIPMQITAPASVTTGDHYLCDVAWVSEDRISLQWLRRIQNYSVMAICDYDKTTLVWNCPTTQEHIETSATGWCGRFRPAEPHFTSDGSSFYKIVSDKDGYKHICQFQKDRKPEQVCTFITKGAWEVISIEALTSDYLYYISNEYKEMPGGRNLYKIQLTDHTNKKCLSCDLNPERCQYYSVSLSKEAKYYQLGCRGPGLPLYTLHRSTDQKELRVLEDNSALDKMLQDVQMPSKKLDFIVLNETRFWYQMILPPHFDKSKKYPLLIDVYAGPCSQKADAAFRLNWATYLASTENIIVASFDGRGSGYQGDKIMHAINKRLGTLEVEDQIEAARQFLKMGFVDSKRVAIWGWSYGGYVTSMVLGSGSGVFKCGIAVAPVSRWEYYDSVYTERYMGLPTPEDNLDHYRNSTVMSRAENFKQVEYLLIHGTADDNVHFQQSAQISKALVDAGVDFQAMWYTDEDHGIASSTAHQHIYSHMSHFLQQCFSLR
A further series deals with Mus musculus. Put plainly: Reduction of glucose excursion in C57BL6/N mouse at 3 mg/kg, po. The series is classed as functional. More on the design: scale not given: the % may be the effect or the level left.
Series [13] is described as follows: Oral bioavailability in Sprague-Dawley rat at 10 mg/kg. The series is classed as ADME, organism-based. The settings on record: in vivo.
Series [14] deals with T2, Dipeptidyl peptidase 4. The source holds these as a separate data set.
A short description of series [15]: Half life in Sprague-Dawley rat at 10 mg/kg, po. The settings on record: in vivo. In kind it is ADME, organism-based. On the set-up: dose 10 mg/kg, route oral.
The nature of series [16]: Stability in pH 7.4 buffer. In kind it is physicochemical.
Series [17] addresses T1, Dipeptidyl peptidase 2. Kind of series: Inhibition of DPP7.
For series [18], the system named is Rattus norvegicus. Put plainly: Ex-vivo inhibition of DPP4 in rat plasma at 10 mg/kg, po after 12 hrs. In kind it is functional.
The target in series [19] is Dipeptidyl peptidase 4 (Sus scrofa, UniProt P22411). Put plainly: Inhibition of pig kidney DPP4.
Dipeptidyl peptidase 4 (Sus scrofa, UniProt P22411), sequence (P22411 whole entry): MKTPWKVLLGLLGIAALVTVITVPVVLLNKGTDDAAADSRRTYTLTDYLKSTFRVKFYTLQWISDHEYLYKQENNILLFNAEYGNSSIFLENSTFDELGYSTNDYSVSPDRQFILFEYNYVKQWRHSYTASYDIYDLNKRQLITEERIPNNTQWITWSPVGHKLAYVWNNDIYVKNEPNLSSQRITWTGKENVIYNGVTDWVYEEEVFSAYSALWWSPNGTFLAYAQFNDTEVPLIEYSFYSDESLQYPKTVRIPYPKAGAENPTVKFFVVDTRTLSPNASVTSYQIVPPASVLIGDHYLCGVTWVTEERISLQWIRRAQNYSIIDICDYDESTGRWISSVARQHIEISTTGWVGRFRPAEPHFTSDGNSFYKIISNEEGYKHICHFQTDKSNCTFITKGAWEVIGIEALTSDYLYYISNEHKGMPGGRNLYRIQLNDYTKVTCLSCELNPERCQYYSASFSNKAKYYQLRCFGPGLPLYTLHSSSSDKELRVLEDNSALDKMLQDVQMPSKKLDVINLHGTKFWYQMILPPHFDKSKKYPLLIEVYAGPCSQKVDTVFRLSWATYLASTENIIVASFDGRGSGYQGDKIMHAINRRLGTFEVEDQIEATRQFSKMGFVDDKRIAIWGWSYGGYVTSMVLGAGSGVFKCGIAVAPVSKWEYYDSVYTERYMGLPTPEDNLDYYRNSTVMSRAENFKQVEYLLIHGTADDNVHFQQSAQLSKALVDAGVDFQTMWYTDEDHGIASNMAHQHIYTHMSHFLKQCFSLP
For a further series, the target named is T3, Prolyl endopeptidase FAP (Homo sapiens, UniProt Q12884).
T3 sequence (Q12884 whole entry): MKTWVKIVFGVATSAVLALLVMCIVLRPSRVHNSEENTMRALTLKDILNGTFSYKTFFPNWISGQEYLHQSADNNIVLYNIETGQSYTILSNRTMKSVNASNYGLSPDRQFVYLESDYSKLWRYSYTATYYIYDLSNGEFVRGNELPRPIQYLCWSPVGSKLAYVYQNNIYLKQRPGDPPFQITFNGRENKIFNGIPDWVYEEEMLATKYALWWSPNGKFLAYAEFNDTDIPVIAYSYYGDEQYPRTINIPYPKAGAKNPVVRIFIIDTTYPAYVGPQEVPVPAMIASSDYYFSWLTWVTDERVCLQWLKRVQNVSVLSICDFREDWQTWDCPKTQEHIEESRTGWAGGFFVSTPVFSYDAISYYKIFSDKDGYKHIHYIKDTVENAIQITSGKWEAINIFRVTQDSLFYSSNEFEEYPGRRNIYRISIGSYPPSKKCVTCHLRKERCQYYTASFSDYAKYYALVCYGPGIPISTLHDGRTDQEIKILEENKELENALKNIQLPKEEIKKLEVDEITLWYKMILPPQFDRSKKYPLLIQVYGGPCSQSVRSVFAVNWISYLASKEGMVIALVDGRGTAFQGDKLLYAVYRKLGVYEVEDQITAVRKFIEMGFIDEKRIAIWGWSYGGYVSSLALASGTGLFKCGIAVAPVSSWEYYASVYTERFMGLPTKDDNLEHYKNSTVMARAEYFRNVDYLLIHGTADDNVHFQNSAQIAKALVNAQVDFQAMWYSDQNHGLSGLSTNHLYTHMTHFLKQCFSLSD
Kind of series: Inhibition of FAP.

Series [20] has as its target Dipeptidyl peptidase 4 (Mus musculus, UniProt P28843). Kind of series: Inhibition of mouse DPP4.

The Ki is a measure of affinity in units of concentration, obtained from inhibition or displacement. The Cmax is the maximum level reached in the sampled fluid or tissue. As usually defined, the bioavailability is dose-corrected exposure relative to a reference, in per cent. As usually defined, the half-life is the time in which the quantity being followed falls by half.

The structures appear in SMILES notation.

Dipeptidyl peptidase 4 (Homo sapiens, UniProt P27487), sequence (P27487 whole entry): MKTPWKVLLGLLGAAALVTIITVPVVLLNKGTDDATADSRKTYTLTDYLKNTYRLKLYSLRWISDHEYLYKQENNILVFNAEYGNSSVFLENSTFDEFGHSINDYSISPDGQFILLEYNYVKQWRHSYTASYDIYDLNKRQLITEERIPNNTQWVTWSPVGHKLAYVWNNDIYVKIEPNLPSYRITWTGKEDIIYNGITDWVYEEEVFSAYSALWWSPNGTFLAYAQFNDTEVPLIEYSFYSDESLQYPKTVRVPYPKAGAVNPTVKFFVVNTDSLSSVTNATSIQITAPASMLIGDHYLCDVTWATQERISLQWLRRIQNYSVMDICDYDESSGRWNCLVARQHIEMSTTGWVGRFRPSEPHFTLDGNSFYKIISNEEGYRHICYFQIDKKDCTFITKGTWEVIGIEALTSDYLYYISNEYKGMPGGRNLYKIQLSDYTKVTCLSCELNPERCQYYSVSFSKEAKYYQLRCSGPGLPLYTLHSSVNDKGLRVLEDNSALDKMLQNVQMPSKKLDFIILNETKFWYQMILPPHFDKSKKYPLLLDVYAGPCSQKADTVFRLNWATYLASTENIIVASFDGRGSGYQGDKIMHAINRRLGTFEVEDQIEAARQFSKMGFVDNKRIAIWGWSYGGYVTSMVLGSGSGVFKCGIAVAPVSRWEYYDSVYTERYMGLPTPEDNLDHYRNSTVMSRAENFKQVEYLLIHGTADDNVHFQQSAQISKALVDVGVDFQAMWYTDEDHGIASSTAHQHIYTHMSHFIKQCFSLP
Dipeptidyl peptidase 4 (Mus musculus, UniProt P28843), sequence (P28843 whole entry): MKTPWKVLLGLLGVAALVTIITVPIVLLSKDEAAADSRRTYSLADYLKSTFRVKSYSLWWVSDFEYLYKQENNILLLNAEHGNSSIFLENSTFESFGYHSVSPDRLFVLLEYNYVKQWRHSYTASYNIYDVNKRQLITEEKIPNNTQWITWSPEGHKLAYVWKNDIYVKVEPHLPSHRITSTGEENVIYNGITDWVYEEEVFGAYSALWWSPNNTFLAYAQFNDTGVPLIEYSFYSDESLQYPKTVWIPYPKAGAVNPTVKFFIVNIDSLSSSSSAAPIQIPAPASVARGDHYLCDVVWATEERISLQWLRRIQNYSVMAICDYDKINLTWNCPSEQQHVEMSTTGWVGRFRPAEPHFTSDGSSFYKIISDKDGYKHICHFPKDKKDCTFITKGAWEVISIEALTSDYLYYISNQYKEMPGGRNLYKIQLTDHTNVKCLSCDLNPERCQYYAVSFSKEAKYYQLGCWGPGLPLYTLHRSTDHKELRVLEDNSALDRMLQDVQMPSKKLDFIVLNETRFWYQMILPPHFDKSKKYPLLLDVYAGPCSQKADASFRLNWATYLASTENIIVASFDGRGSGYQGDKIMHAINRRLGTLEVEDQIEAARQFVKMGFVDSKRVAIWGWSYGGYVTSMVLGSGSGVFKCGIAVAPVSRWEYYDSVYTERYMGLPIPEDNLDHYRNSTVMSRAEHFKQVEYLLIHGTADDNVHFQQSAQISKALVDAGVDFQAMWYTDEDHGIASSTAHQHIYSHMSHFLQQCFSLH

On Dipeptidyl peptidase 2 [1], `C[C@H](N)C(=O)N1CCC[C@H]1B(O)O` gave a Ki of 125 nM. As for `Cc1ccc(O)c(C)c1[C@@H]1CN[C@H](C(=O)N2CCC[C@H]2C#N)C1`, the results for the inhibition in vivo at 1 mg/kg in the series filed under Rattus norvegicus [2] and in the series filed under Rattus norvegicus [3] were 95% and 83%, respectively.

Consider `N#C[C@@H]1C[C@@H]2C[C@@H]2N1C(=O)[C@@H](N)C12CC3CC(CC(O)(C3)C1)C2` [SAXAGLIPTIN ANHYDROUS], for which the inhibition in vivo at 4 µmol/kg in the series filed under Rattus norvegicus [4] and in the series listed under Rattus norvegicus [5] was 87% in each case.

For the compound `CN(C)C(=O)[C@@H](c1ccc(C2=CN3N=CNC3C=C2)cc1)[C@H](N)C(=O)N1CC[C@H](F)C1` (stereo partly specified), the IC50 on Dipeptidyl peptidase 2 [1], on Dipeptidyl peptidase 8 and against Dipeptidyl peptidase 9 was over 100000 nM each time. Regarding `COc1ccc(CS(=O)(=O)C(C)(C)[C@H](N)C(=O)N2C[C@@H](F)C[C@H]2C#N)cc1`, the inhibition in vivo at 1 mg/kg in the series filed under Rattus norvegicus [6] was 84%. `COc1ccccc1N1CCc2nc(C)c(CN)c(-c3ccc(Cl)cc3Cl)c2C1=O` came in with an IC50 against Dipeptidyl peptidase 4 [7] of 2.28 nM. On to `CC[C@H](C)[C@H](N)C(=O)N1C[C@@H](F)C[C@H]1C#N`, for which the peak level in series [8] (Cmax) was 372 ng/mL.

For the compound `CC(N)/C(F)=C1\CCC[C@@H]1C#N` (single isomer, unassigned; diastereomer 2), the IC50 on Dipeptidyl peptidase 4 [7] was 6030 nM. On to `CC(c1nc(-c2ccc(S(C)(=O)=O)cc2Cl)no1)[C@H](N)C(F)=C1CCCC1.O=C(O)C(F)(F)F` (stereo partly specified), for which the IC50 in the series filed under Rattus norvegicus [9] is on record as 62%. For the compound `N#C[C@@H]1CCCN1C(=O)CNC12CC3CC(CC(O)(C3)C1)C2` [VILDAGLIPTIN], in [10], the bioavailability was over 90%. In the case of `CC(C)(C)C(NC(=O)C[C@@H](N)C(=O)N1CCC[C@H]1C#N)c1ccccc1` (stereo partly specified), the Selectivity ratio in [11] was 53. The IC50 on Dipeptidyl peptidase 4 [7] was found to be 251 nM. The compound `N#Cc1ccc(N[C@@H]2CNC(C(=O)N3CCC[C@H]3C#N)C2)cc1C#N` (stereo partly specified) returned an IC50 at Dipeptidyl peptidase 4 [12] of 0.17 nM. In turn, `N[C@H](C(=O)N1CC[C@H](F)C1)[C@H]1CC[C@H](NS(=O)(=O)c2ccc(F)cc2F)CC1` registered an Activity in the series with Mus musculus of 42%.

`N#Cc1ccc(N[C@@H]2CN[C@H](C(=O)N3CCSC3)C2)nc1` registered a bioavailability in series [13] of 83.9%. Besides, the IC50 at Dipeptidyl peptidase 4 [14] was determined as 30.4 nM. For the same compound, the half-life in series [15] was 5.27 h.

For `N#C[C@@H]1CCCN1C(=O)[C@@H](N)C1CCCCC1`, the half-life in series [16] is over 48 h. In the series on Mus musculus, `N[C@H](C(=O)N1CCCC1)[C@H]1CC[C@H](NS(=O)(=O)c2ccc(F)cc2F)CC1` showed an Activity of 36%. In the case of `CC(N)/C(F)=C1\CCC[C@@H]1C#N` (stereo partly specified), the IC50 against Dipeptidyl peptidase 4 [7] was 7690 nM.

In turn, `CC(C)=CCN1C(C2CC[C@H]3NCC[C@@H]23)=NC2C1C(=O)N(CC(=O)c1ccccc1)C(=O)N2C` (stereo partly specified) returned an IC50 against Dipeptidyl peptidase 4 [7] of 18 nM. On to `O=C(CNC12CC3CC(CC(C3)C1)C2)N1CCC[C@H]1B(O)O`, for which the IC50 against Dipeptidyl peptidase 2 [17] came to 420 nM; on Dipeptidyl peptidase 4 [7], 8 nM. `N#Cc1ccccc1Cn1c(N2CCC[C@@H](N)C2)nc2ccc(F)cc2c1=O` had an inhibition in vivo at 10 mg/kg with Rattus norvegicus [18] of 50%. In the case of `N#Cc1ccc(NCCNCC(=O)N2N=CCC2C#N)nc1` (stereo unspecified), the results for the IC50 on Dipeptidyl peptidase 4 [14] and against Dipeptidyl peptidase 4 [19] were 780 nM and 490 nM, respectively. For `CC(C)[C@H](Oc1ccc(CNC(=O)[C@@H]2CCCN2C(=O)C[C@H](N)Cc2cc(F)ccc2F)cc1)C(=O)O`, the IC50 against Dipeptidyl peptidase 2 [1] is over 100000 nM; at Prolyl endopeptidase FAP, 21000 nM; against Dipeptidyl peptidase 8, over 100000 nM; against Dipeptidyl peptidase 4 [7], 0.48 nM; on Dipeptidyl peptidase 9, over 86000 nM. Consider `CC1(NCC(=O)N2C[C@H](F)C[C@@H]2C#N)CCN(S(C)(=O)=O)CC1`, for which the IC50 at Dipeptidyl peptidase 4 [20] turned out to be 2.6 nM.

For the origin of these results see ChEMBL document CHEMBL1152762, “Medicinal chemistry approaches to the inhibition of dipeptidyl peptidase-4 for the treatment of type 2 diabetes” (Bioorg Med Chem, 2009).
